Measurements published in patent US11324729B2, “NSD family inhibitors and methods of treatment therewith” (The Regents of the University of Michigan, priority 2017, dated 2022).
Like-named read-outs stand apart in the source and are kept apart here. Values belong to the molecule of their own block, whether it stands above or below them.

How the values were obtained:
NSD1 [1] = target: T1, NSD1 (Homo sapiens, UniProt Q96L73); assay: Mass spectrometry detection of covalent/irreversible binding to NSD1
T1 construct: 6 μM of 159 was incubated with 1 mM of NSD1 SET domain for 8 hours
T1 sequence (Q96L73 1852-2082 limits assumed): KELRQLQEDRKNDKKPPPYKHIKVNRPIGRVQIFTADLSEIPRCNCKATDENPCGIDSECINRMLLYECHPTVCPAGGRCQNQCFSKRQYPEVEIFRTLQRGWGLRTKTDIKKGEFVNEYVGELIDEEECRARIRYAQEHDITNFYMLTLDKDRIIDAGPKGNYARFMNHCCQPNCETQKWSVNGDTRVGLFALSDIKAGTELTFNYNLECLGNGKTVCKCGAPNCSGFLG
Description: (§1) 10 μM 151 was incubated with NSD1 for 20 h. B. HSQC spectrum of 150 μM NSD1 with 300 μM 151.
6 μM of 159 was incubated with 1 mM of NSD1 SET domain for 8 hours.
FIG. 7. […] Asterisk denotes covalent protein adduct with 198.

NSD1 [2] = target: NSD1 (Homo sapiens, UniProt Q96L73); assay: HSQC NMR spectrum of NSD1 with compound; type: binding; details: 150 μM NSD1 with 300 μM compound; including Cys2062
Description: as §1
Target sequence in this assay (Q96L73 whole entry, the tested form may be a part): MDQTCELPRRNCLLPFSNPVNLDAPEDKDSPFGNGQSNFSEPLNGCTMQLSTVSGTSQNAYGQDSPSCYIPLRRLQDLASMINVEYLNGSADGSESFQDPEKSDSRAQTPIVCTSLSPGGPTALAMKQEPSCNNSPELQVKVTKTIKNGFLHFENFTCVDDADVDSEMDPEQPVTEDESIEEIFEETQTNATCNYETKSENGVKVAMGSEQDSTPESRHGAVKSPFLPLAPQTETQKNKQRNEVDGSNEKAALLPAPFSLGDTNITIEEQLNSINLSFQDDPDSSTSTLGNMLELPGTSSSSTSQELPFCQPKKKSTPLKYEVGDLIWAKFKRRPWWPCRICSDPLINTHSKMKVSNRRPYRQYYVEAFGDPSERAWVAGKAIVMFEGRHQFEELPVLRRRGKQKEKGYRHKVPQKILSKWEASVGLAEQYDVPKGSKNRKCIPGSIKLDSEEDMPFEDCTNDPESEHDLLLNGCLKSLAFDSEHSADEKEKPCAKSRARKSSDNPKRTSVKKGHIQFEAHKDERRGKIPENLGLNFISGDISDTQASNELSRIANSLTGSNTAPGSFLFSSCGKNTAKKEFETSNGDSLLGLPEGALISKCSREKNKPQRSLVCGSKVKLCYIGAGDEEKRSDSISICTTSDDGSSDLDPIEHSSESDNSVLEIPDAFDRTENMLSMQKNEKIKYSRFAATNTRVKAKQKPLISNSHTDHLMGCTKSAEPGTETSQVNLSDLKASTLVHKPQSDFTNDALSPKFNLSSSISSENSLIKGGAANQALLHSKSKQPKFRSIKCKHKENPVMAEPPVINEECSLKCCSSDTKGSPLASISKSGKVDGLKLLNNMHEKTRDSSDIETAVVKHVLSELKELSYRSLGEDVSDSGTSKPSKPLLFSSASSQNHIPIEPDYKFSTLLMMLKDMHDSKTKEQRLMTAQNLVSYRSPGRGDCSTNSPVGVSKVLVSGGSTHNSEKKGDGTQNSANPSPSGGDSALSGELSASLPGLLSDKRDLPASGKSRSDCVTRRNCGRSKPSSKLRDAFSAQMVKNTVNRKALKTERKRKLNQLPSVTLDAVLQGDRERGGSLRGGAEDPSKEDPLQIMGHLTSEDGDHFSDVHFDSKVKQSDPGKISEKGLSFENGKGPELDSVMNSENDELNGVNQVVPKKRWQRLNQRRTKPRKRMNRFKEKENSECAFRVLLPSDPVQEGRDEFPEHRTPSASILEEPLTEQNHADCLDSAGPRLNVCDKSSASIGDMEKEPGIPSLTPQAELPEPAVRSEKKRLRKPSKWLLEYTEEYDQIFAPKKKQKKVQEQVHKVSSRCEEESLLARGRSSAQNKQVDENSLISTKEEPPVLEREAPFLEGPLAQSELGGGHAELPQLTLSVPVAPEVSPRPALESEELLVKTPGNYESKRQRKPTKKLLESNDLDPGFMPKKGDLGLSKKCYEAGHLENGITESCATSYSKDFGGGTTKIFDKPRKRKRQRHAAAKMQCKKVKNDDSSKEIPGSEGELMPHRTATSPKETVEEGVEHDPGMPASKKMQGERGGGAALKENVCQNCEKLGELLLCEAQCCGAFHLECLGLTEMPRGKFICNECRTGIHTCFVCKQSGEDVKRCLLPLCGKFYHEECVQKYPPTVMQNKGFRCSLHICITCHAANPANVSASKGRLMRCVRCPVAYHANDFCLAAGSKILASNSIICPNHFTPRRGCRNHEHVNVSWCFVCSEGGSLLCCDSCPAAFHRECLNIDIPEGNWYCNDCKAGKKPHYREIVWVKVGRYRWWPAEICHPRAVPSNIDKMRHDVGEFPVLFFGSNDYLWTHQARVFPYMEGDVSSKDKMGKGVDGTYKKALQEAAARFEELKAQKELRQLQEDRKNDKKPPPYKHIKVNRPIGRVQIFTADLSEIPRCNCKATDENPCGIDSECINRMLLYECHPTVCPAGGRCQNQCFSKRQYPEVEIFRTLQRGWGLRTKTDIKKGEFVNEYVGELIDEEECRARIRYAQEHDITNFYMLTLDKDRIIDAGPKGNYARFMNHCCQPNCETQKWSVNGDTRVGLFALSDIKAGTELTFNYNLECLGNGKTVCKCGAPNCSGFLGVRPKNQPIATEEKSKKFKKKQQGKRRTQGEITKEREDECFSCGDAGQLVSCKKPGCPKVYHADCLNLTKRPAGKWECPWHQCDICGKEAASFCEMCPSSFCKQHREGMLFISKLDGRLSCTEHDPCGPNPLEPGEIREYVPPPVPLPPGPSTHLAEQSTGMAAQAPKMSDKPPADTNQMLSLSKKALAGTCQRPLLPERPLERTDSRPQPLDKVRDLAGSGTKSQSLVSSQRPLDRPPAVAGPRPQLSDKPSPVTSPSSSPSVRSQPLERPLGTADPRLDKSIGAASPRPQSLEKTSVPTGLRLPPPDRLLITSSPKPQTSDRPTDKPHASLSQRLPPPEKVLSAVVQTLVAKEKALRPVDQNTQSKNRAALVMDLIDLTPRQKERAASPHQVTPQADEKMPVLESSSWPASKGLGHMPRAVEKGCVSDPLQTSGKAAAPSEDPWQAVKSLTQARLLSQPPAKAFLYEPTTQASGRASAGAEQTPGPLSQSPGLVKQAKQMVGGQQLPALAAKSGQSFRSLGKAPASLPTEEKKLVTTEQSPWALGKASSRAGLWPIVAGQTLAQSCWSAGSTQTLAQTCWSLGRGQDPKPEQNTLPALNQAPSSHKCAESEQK

[3] = target: T2, NSD1 (1753-2095 fragment) (Homo sapiens, UniProt Q96L73); assay: CETSA assay in HeLa cells; type: cell-based; details: HeLa cells treated with 5 μM compound
T2 construct: expressed in transfected cells; host or cells: HeLa cells
T2 sequence (Q96L73 1753-2095): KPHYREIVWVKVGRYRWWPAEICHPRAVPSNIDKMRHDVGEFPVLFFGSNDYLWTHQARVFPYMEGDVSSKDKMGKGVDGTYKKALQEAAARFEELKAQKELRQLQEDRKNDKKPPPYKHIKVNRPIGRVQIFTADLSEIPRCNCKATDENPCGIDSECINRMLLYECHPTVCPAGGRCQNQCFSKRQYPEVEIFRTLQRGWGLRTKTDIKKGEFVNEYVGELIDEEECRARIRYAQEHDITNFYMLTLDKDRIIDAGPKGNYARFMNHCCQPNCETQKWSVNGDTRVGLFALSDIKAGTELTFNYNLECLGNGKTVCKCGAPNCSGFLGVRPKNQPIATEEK

Nup98-NSD1 cells [4] = assay: MTT growth inhibition assay, Nup98-NSD1 cells; type: cell-based; details: 3, 7 and 10 days
HM-2 cells = assay: MTT proliferation assay, control HM-2 cells; type: cell-based
Nup98-NSD1 cells [5] = assay: Cytospins, differentiation of Nup98-NSD1 cells; type: cell-based
[6] = test system: Nup98-NSD1 subcutaneous model; assay: Nup98-NSD1 subcutaneous leukemia model in mice; type: in vivo; details: 25 mg/kg q.d., I.P.
Description: FIG. 6A-F. Pharmacokinetics and efficacy of 159 in Nup98-NSD1 leukemia model. A. Pharmacokinetics studies in mice treated with 25 mg/kg of 159 using I.P. administration. B. Efficacy in Nup98-NSD1 subcutaneous model. Mice were treated with 25 mg/kg q.d., I.P. C. Representative tumors from vehicle and 159 treated mice. […] E. Immuno-histochemistry analysis of H3K36me2 level in tumor samples of mice treated with vehicle (top) and 159 (bottom). […] F. Body weight of 159 treated animals.

MCF7 = assay: MTT viability, 7 days treatment, MCF7; type: cell-based; details: Homo sapiens, 168 h, MCF7, 7 days treatment
Excerpt: (§2) FIG. 8. Activity of NSD inhibitors in breast cancer cell lines.

ZR-75-1 = assay: MTT viability, 7 days treatment, ZR-75-1; type: cell-based; details: Homo sapiens, 168 h, ZR-75-1, 7 days treatment
Excerpt: as §2

MDA-MB-468 = assay: MTT viability, 7 days treatment, MDA-MB-468; type: cell-based; details: Homo sapiens, 168 h, MDA-MB-468, 7 days treatment
Excerpt: as §2

SUM44 = assay: Viability, 7 days treatment, SUM44; type: cell-based; details: 168 h; SUM44, 7 days treatment
Excerpt: as §2

SMILES: CC1CN1c1cc(O)c2nc(N)sc2c1 (stereo not shown) [Compound 151]
Irreversible binding to NSD1 detected by MS (NSD1 [1]; 10 μM compound incubated with NSD1 for 20 h): Irreversible binding
HSQC spectrum perturbation of NSD1 residues (NSD1 [2]): Several perturbed residues

SMILES: Nc1nc2c(O)cc(N3CC3Cc3ccccc3Cl)cc2s1 (stereo not shown) [Compound 159, 2-Amino-6-(2-(2-chlorobenzyl)aziridin-1-yl)benzo[d]thiazol-4-ol]
Covalent engagement of NSD1 by mass spectrometry (NSD1 [1]; 6 μM compound incubated with 1 mM of NSD1 SET domain for 8 hours): binds covalently
CETSA stabilization of NSD1 (1753-2095 fragment) [3]: stabilization of NSD1
Growth inhibition of Nup98-NSD1 cells (MTT) (Nup98-NSD1 cells [4]): time-dependent (3, 7 and 10 days) growth inhibition
Proliferation of control HM-2 cells (MTT) (HM-2 cells): does not inhibit proliferation
Differentiation of Nup98-NSD1 cells (cytospins) (Nup98-NSD1 cells [5]): differentiation of Nup98-NSD1 cells induced
Expression of Hoxa7 in tumors [6]: reduced expression of Hoxa7
H3K36me2 level in tumor samples (immuno-histochemistry) [6]: Strong reduction of H3K36me2 level

GI50 (MCF7; read-out: GI50, MTT viability): 1.5 µM
GI50 (MDA-MB-468; read-out: GI50, MTT viability): 0.035 µM
SMILES: C=CS(=O)(=O)NCc1cccc(NCC#Cc2cc(O)c3nc(N)sc3c2)c1Cl [Compound 230]
GI50 (ZR-75-1; read-out: GI50, MTT viability): 0.1 µM

GI50 (MCF7; read-out: GI50, viability): 0.487 µM
GI50 (MDA-MB-468; read-out: GI50, viability): 0.031 µM
SMILES: C=CS(=O)(=O)NCc1cccc(NCC#Cc2cc(O)c3nc(N)sc3c2)c1F [Compound 225]
GI50 (ZR-75-1; read-out: GI50, viability): 0.053 µM
GI50 (SUM44): 0.341 µM
